According to ChEMBL document CHEMBL3046407, “Toxicity of monoterpenes against larvae and adults of Colorado potato beetle, Leptinotarsa decemlineata Say (Coleoptera: Chrysomelidae)” (2007):

Columns and labels:
Assay type in all cases: functional
[1] = system: Leptinotarsa decemlineata; test: Insecticidal activity against adult Leptinotarsa decemlineata infested potato leaves assessed as mortality at 20 ul after 96 hr relative to control
[2] = system: Leptinotarsa decemlineata; test: Insecticidal activity against first-instar larval stage of Leptinotarsa decemlineata infested potato leaves assessed as mortality at 10 ul after 48 hr relative to control
[3] = system: Leptinotarsa decemlineata; test: Insecticidal activity against adult Leptinotarsa decemlineata infested potato leaves assessed as mortality at 10 ul after 48 hr relative to control
[4] = system: Leptinotarsa decemlineata; test: Insecticidal activity against adult Leptinotarsa decemlineata infested potato leaves assessed as mortality at 10 ul after 24 hr relative to control
[5] = system: Leptinotarsa decemlineata; test: Insecticidal activity against first-instar larval stage of Leptinotarsa decemlineata infested potato leaves assessed as mortality at 10 ul after 12 hr relative to control
[6] = system: Leptinotarsa decemlineata; test: Insecticidal activity against third-instar larval stage of Leptinotarsa decemlineata infested potato leaves assessed as mortality at 10 ul after 12 hr relative to control
[7] = system: Leptinotarsa decemlineata; test: Insecticidal activity against third-instar larval stage of Leptinotarsa decemlineata infested potato leaves assessed as mortality at 20 ul after 12 hr relative to control
[8] = system: Leptinotarsa decemlineata; test: Insecticidal activity against third-instar larval stage of Leptinotarsa decemlineata infested potato leaves assessed as mortality at 10 ul after 24 hr relative to control
[9] = system: Leptinotarsa decemlineata; test: Insecticidal activity against first-instar larval stage of Leptinotarsa decemlineata infested potato leaves assessed as mortality at 10 ul after 96 hr relative to control
[10] = system: Leptinotarsa decemlineata; test: Insecticidal activity against first-instar larval stage of Leptinotarsa decemlineata infested potato leaves assessed as mortality at 20 ul after 48 hr relative to control
[11] = system: Leptinotarsa decemlineata; test: Insecticidal activity against second-instar larval stage of Leptinotarsa decemlineata infested potato leaves assessed as mortality at 10 ul after 48 hr (reference value: […] +/- 3.3%)
[12] = system: Leptinotarsa decemlineata; test: Insecticidal activity against first-instar larval stage of Leptinotarsa decemlineata infested potato leaves assessed as mortality at 20 ul after 96 hr relative to control
[13] = system: Leptinotarsa decemlineata; test: Insecticidal activity against first-instar larval stage of Leptinotarsa decemlineata infested potato leaves assessed as mortality at 20 ul after 12 hr relative to control
[14] = system: Leptinotarsa decemlineata; test: Insecticidal activity against third-instar larval stage of Leptinotarsa decemlineata infested potato leaves assessed as mortality at 20 ul after 48 hr (reference value: […] +/- 3.3%)
[15] = system: Leptinotarsa decemlineata; test: Insecticidal activity against second-instar larval stage of Leptinotarsa decemlineata infested potato leaves assessed as mortality at 20 ul after 48 hr (reference value: […] +/- 3.3%)
[16] = system: Leptinotarsa decemlineata; test: Insecticidal activity against second-instar larval stage of Leptinotarsa decemlineata infested potato leaves assessed as mortality at 20 ul after 24 hr (reference value: […] +/- 3.3%)
[17] = system: Leptinotarsa decemlineata; test: Insecticidal activity against second-instar larval stage of Leptinotarsa decemlineata infested potato leaves assessed as mortality at 10 ul after 12 hr relative to control
[18] = system: Leptinotarsa decemlineata; test: Insecticidal activity against adult Leptinotarsa decemlineata infested potato leaves assessed as mortality at 20 ul after 24 hr relative to control
[19] = system: Leptinotarsa decemlineata; test: Insecticidal activity against second-instar larval stage of Leptinotarsa decemlineata infested potato leaves assessed as mortality at 10 ul after 96 hr (reference value: […] +/- 3.3%)
[20] = system: Leptinotarsa decemlineata; test: Insecticidal activity against adult Leptinotarsa decemlineata infested potato leaves assessed as mortality at 10 ul after 12 hr relative to control
[21] = system: Leptinotarsa decemlineata; test: Insecticidal activity against second-instar larval stage of Leptinotarsa decemlineata infested potato leaves assessed as mortality at 10 ul after 24 hr (reference value: […] +/- 3.3%)
[22] = system: Leptinotarsa decemlineata; test: Insecticidal activity against third-instar larval stage of Leptinotarsa decemlineata infested potato leaves assessed as mortality at 10 ul after 96 hr (reference value: […] +/- 3.3%)
[23] = system: Leptinotarsa decemlineata; test: Insecticidal activity against first-instar larval stage of Leptinotarsa decemlineata infested potato leaves assessed as mortality at 20 ul after 24 hr relative to control
[24] = system: Leptinotarsa decemlineata; test: Insecticidal activity against first-instar larval stage of Leptinotarsa decemlineata infested potato leaves assessed as mortality at 10 ul after 24 hr relative to control
[25] = system: Leptinotarsa decemlineata; test: Insecticidal activity against second-instar larval stage of Leptinotarsa decemlineata infested potato leaves assessed as mortality at 20 ul after 12 hr relative to control
[26] = system: Leptinotarsa decemlineata; test: Insecticidal activity against third-instar larval stage of Leptinotarsa decemlineata infested potato leaves assessed as mortality at 10 ul after 48 hr (reference value: […] +/- 3.3%)
[27] = system: Leptinotarsa decemlineata; test: Insecticidal activity against second-instar larval stage of Leptinotarsa decemlineata infested potato leaves assessed as mortality at 20 ul after 96 hr (reference value: […] +/- 3.3%)
[28] = system: Leptinotarsa decemlineata; test: Insecticidal activity against third-instar larval stage of Leptinotarsa decemlineata infested potato leaves assessed as mortality at 20 ul after 96 hr (reference value: […] +/- 3.3%)
[29] = system: Leptinotarsa decemlineata; test: Insecticidal activity against adult Leptinotarsa decemlineata infested potato leaves assessed as mortality at 20 ul after 48 hr relative to control
[30] = system: Leptinotarsa decemlineata; test: Insecticidal activity against adult Leptinotarsa decemlineata infested potato leaves assessed as mortality at 10 ul after 96 hr relative to control
[31] = system: Leptinotarsa decemlineata; test: Insecticidal activity against adult Leptinotarsa decemlineata infested potato leaves assessed as mortality at 20 ul after 12 hr relative to control
[32] = system: Leptinotarsa decemlineata; test: Insecticidal activity against third-instar larval stage of Leptinotarsa decemlineata infested potato leaves assessed as mortality at 20 ul after 24 hr relative to control

Compound | mortality [1] [%] | mortality [2] [%] | mortality [3] [%] | mortality [4] [%] | mortality [5] [%] | mortality [6] [%] | mortality [7] [%] | mortality [8] [%] | mortality [9] [%] | mortality [10] [%] | mortality [11] [%] | mortality [12] [%] | mortality [13] [%] | mortality [14] [%] | mortality [15] [%] | mortality [16] [%] | mortality [17] [%] | mortality [19] [%] | mortality [20] [%] | mortality [21] [%] | further results
C/C=C(C)/C=C/C=C(C)C [ALLO-OCIMENE] | 23.3 | 46.7 | 3.3 | 3.3 | 13.3 | 0 | 23.3 | 0 | 56.7 | 46.7 | 50 | 56.7 | 16.7 | 23.3 | 53.3 | 43.3 | 23.3 | 66.7 | 3.3 | 40 | mortality [18]: 20%; mortality [22]: 0%; mortality [23]: 33.3%; mortality [24]: 33.3%; mortality [25]: 30%; mortality [26]: 0%; mortality [27]: 60%; mortality [28]: 26.7%; mortality [29]: 20%; mortality [30]: 3.3%; mortality [31]: 3.3%; mortality [32]: 23.3%
CC1=CCC2CC1C2(C)C (stereo not drawn) [ALPHA-PINENE] | 100 | 63.3 | 100 | 100 | 26.7 | 3.3 | 13.3 | 3.3 | 66.7 | 56.7 | 63.3 | 66.7 | 13.3 | 30 | 80 | 70 | 26.7 | 66.7 | 100 | 50 | mortality [18]: 100%; mortality [22]: 6.7%; mortality [23]: 43.3%; mortality [24]: 50%; mortality [25]: 20%; mortality [27]: 86.7%; mortality [28]: 36.7%; mortality [29]: 100%; mortality [30]: 100%; mortality [31]: 96.7%; mortality [32]: 16.7%
C=CC(C)CCC=C(C)C (stereo not drawn) [BETA-CITRONELLENE] | 90 | 100 | 73.3 | 73.3 | 30 | 80 | 50 | 93.3 | 100 | 100 | 100 | 100 | 76.7 | 93.3 | 100 | 100 | 43.3 | 100 | 40 | 96.7 | mortality [18]: 76.7%; mortality [22]: 100%; mortality [23]: 100%; mortality [24]: 86.7%; mortality [25]: 66.7%; mortality [26]: 100%; mortality [27]: 100%; mortality [28]: 93.3%; mortality [29]: 83.3%; mortality [30]: 76.7%; mortality [31]: 53.3%; mortality [32]: 80%
C=C1CCC2CC1C2(C)C (stereo not drawn) [BETA-PINENE] | 100 | 96.7 | 100 | 100 | 43.3 | 80 | 100 | 83.3 | 100 | 100 | 90 | 100 | 66.7 | 100 | 80 | 70 | 56.7 | 100 | 100 | 76.7 | mortality [18]: 96.7%; mortality [22]: 100%; mortality [23]: 100%; mortality [24]: 66.7%; mortality [25]: 20%; mortality [26]: 100%; mortality [27]: 86.7%; mortality [28]: 100%; mortality [29]: 100%; mortality [30]: 100%; mortality [31]: 80%; mortality [32]: 100%
CC1=CCC2C(C1)C2(C)C (stereo unspecified) [CARENE] | 86.7 | 86.7 | 80 | 73.3 | 36.7 | 100 | 100 | 100 | 100 | 86.7 | 100 | 86.7 | 56.7 | 100 | 93.3 | 86.7 | 46.7 | 100 | 36.7 | 73.3 | mortality [18]: 80%; mortality [22]: 100%; mortality [23]: 70%; mortality [24]: 63.3%; mortality [25]: 76.7%; mortality [26]: 100%; mortality [27]: 93.3%; mortality [28]: 100%; mortality [29]: 86.7%; mortality [30]: 80%; mortality [31]: 50%; mortality [32]: 100%
CC(C)=CCC[C@@H](C)CC=O [CITRONELLAL] | 86.7 | 76.7 | 100 | 90 | 6.7 | 20 | 10 | 20 | 86.7 | 90 | 76.7 | 100 | 33.3 | 26.7 | 93.3 | 80 | 20 | 80 | 6.7 | 53.3 | mortality [22]: 26.7%; mortality [23]: 76.7%; mortality [24]: 43.3%; mortality [25]: 23.3%; mortality [26]: 20%; mortality [27]: 93.3%; mortality [28]: 33.3%; mortality [29]: 80%; mortality [30]: 100%; mortality [31]: 16.7%; mortality [32]: 20%
C=CC(C)(CCC=C(C)C)OC(C)=O (stereo unspecified) [LINALYL ACETATE] | 70 | 70 | 16.7 | 0 | 16.7 | 23.3 | 30 | 30 | 86.7 | 93.3 | 80 | 69.3 | 26.7 | 76.7 | 93.3 | 63.3 | 20 | 86.7 | 0 | 36.7 | mortality [18]: 23.3%; mortality [22]: 33.3%; mortality [23]: 63.3%; mortality [24]: 30%; mortality [25]: 30%; mortality [27]: 93.3%; mortality [28]: 83.3%; mortality [29]: 63.3%; mortality [30]: 23.3%; mortality [31]: 10%; mortality [32]: 73.3%
